What was measured:
MT4 [1] = experiment: Effective concentration achieving 50% protection of MT-4 cells against the cytopathic effect of HIV-1; format: functional, cell-based, Homo sapiens
MT4 [2] = experiment: Cytotoxic concentration required to reduce the viability of normal uninfected MT-4 cells by 50%; format: functional, Homo sapiens
[3] = Selectivity index is the ratio of CC50 to EC50; format: functional
[4] = molecular target: Human immunodeficiency virus type 1 reverse transcriptase (Human immunodeficiency virus 1, UniProt Q72547); experiment: Compound was evaluated for the 50% inhibitory concentration on human immunodeficiency virus associated reverse transcriptase

| IC50 [4] [µM] | SMILES | EC50 (MT4 [1]; Homo sapiens, MT4) [µM] | CC50 (MT4 [2]; Homo sapiens, MT4) [µM] | SI [3] | EC50 (MT4 [1]; mt4) [µM] | CC50 (MT4 [2]) [µM] |
| --- | --- | --- | --- | --- | --- | --- |
|  | O=c1ccn([C@H]2CC[C@@H](COCP(=O)(O)O)O2)c(=O)[nH]1 | 90 | > 500 | > 5 |  |  |
|  | Cc1cn([C@H]2C[C@H](N)[C@@H](COCP(=O)(O)O)O2)c(=O)[nH]c1=O | > 500 | > 500 | > 1 |  |  |
|  | Cc1cn([C@H]2CC[C@@H](COCP(=O)(O)O)O2)c(=O)[nH]c1=O | 500 | > 500 | > 1 |  |  |
|  | CO[C@H]1C[C@H](n2cc(C)c(=O)[nH]c2=O)O[C@@H]1COCP(=O)(O)O | 500 | > 500 | > 1 |  |  |
| 322 | CC1CN([C@H]2C[C@H](N=[N+]=[N-])[C@@H](COCP(=O)(O)OP(=O)(O)OP(=O)(O)O)O2)C(=O)NC1=O (some centres undefined) |  |  |  |  |  |
|  | Cc1cn([C@H]2C[C@H](N=[N+]=[N-])[C@@H](CO)O2)c(=O)[nH]c1=O [ZIDOVUDINE] | 0.003 | 4.8 | 1600 |  |  |
|  | Cc1cn([C@H]2C[C@H](F)[C@@H](CO)O2)c(=O)[nH]c1=O [ALOVUDINE] | 0.001 |  | 197 |  |  |
|  | CCOP(=O)(O)COC[C@@H]1CC[C@H](N2CCC(=N)NC2=O)O1 | > 500 | > 500 |  |  |  |
|  | Cc1cn([C@H]2C[C@H](N=[N+]=[N-])[C@@H](COCP(=O)(O)O)O2)c(=O)[nH]c1=O | 1.28 | 161 | 125 |  |  |
|  | Cc1cn([C@H]2C[C@H](N=[N+]=[N-])[C@@H](COCP(=O)(O)OP(=O)(O)OP(=O)(O)O)O2)c(=O)[nH]c1=O | 1.15 | 0.023 |  |  |  |
|  | Nc1ccn([C@H]2CC[C@@H](COCP(=O)(O)O)O2)c(=O)n1 | > 500 | > 500 | > 1 |  |  |
|  | Cc1cn([C@H]2C[C@H](F)[C@@H](COCP(=O)(O)OP(=O)(O)OP(=O)(O)O)O2)c(=O)[nH]c1=O (stereo in doubt; 30) |  |  | > 5 | 100 | > 500 |
|  | Cc1cn([C@H]2C[C@H](F)[C@@H](COCP(=O)(O)O)O2)c(=O)[nH]c1=O | 0.9 | 17.3 | 19 |  |  |

From ChEMBL document CHEMBL1124906, “5'-O-phosphonomethyl-2',3'-dideoxynucleosides: synthesis and anti-HIV activity” (J Med Chem, 1990)
